According to article PMC9582199, “Molecular architecture of the glycogen- committed PP1/PTG holoenzyme” (Nature Communications, 2022):
Like-named read-outs stand apart in the source and are kept apart here. Blank lines part the entries; values can stand above or below the molecule they belong to.

Legend:
[1] = molecular target: T1, PP1 7-330 (Homo sapiens, UniProt P62136); test: GCI binding kinetics of PTG-derived peptides on captured PP1; conditions: 25 °C, 6xHis-PP1 7-330 captured on NTA chip, peptide 1:2 dilutions from 300 nM
T1 construct: reversibly capturing 6xHis-tagged PP1^7-330; host or cells: E. coli BL21 (DE3) pGro7
T1 sequence (P62136 7-330): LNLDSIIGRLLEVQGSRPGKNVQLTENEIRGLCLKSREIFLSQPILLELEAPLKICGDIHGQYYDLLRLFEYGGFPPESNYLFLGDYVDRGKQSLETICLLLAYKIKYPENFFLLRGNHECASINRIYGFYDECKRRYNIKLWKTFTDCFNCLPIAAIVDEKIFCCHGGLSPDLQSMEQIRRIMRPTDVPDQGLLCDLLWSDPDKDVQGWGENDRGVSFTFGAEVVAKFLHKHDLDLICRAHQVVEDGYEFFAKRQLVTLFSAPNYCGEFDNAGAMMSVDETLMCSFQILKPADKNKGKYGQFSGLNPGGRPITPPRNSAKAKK
Protocol: (§1) Grating-coupled interferometry (GCI) experiments were performed using the Creoptix WAVE system, a new generation instrument for the high-sensitivity kinetics and affinity analysis of label-free molecular interactions based on the waveguide interferometry technology. Waveguide interferometry exceeds the sensitivity levels of Surface Plasmon Resonance (SPR). […] GCI allows getting high resolution even at very low signal levels with low noise without artificial data averaging and reliable kinetics below 1 pg/mm^2. By the lower immobilization levels that are required, it avoids mass transport limitations. It covers the broadest kinetic range with the capability of analyzing of the ultra-fast transition times (i.e. 150 ms). It allows the reliable determination of off-rates of 5 s^–1 and even faster, enabling off-rate screening of weakly binding analytes. GCI can be applied to a wide range of pharmacological targets, with improved results on very low molecular weight compounds, to the dimensions of metal ions[56].
(§2) WAVE chips are composed of four channels or cells. Borate buffer (100 mM sodium borate pH 9.0, 1 M NaCl) was used for chip conditioning. […]
(§3) Supplementary Figure 3: Quantitative binding kinetics by GCI. […]

[2] = molecular target: T2, PTG132-264 (CBM) (Homo sapiens, UniProt Q9UQK1); test: GCI binding kinetics of β-cyclodextrin on immobilized PTG; conditions: 25 °C, 10 mM Hepes pH 7.2, 150 mM NaCl, 0.005% Tween 20, 1:3 dilutions from 500 µM
T2 sequence (Q9UQK1 132-264): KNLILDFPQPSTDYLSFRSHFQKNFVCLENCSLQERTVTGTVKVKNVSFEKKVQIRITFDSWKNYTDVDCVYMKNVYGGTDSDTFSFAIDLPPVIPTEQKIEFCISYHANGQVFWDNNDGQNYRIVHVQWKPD
Protocol: as §1, §2, §3

[3] = molecular target: R. oryzae CBM21; conditions: cited from earlier work
Excerpt: (§4) The same two sugar-binding sites have been identified in the crystal structures of Rhizopus oryzae CBM21[13],[14]; site II is the primary binding site, while site I has been hypothesized to contribute to the binding of long-chain soluble polysaccharides and insoluble starch or to the relaxation and unwinding of helical amylose[15],[16].

[4] = molecular target: GM CBM21; conditions: cited from earlier work
Excerpt: as §4

[5] = molecular target: T3, PTG CBM21 (residues 132–264) (Homo sapiens, UniProt Q9UQK1); test: ITC titration of PTG CBM21 with β-cyclodextrin; type: binding; conditions: 25 °C
T3 sequence (Q9UQK1 132-264): T2 sequence (Q9UQK1 132-264)
Protocol: ITC experiments were performed using an ITC 200 microcalorimeter (Malvern Panalytical, UK) at 25 °C with a stirring speed of 750 rpm in 25 mM Hepes pH 7.4, 0.2 M NaCl, 5% glycerol with 180 s separating the injections. β-cyclodextrin was dissolved in the running buffer and two datasets were collected, one with PTG CBM21 concentration at 100 μM and β-cyclodextrin at 3 mM with 40 injections of 1 µl, the other at 200 μM and 4 mM, respectively, with 80 injections of 1 µl. A blank run with only the buffer was carried out. Data analysis was done with ORIGIN subtracting the blank titrations fitting ‘one site’ and ‘two sites’ models.

[6] = test system: PP1; test: Literature binding of GM constructs to PP1; conditions: GM 64–105 (KD 114 nM, ref 12) compared with the corresponding PTG peptide
[7] = 'two sites' model with stoichiometry fixed, average of two runs
[8] = 'two sites' model, average of two runs
[9] = 'two sites' model, average of two separate runs

KD by GCI for binding to PP1 [1]: almost halved
Molecule: PTG81-132: extended PTG peptide, residues 81–132, including RVVF and SALK sequences; ProteoGenix SAS (AKKRVVFADSKGLSLTAIHVFSDLPEEPAWDLQFDLLDLNDISSALKHHEEK)

Kd [2]: 37 ± 7 µM
Kd ([5]; 25 mM Hepes pH 7.4, 0.2 M NaCl, 5% glycerol, 'one site' model, average of two separate runs, read-out: KD (KD1), 1 Site model): 59 ± 5 µM
ΔS1, 1 Site model ([5]; 'one site' model, average of two separate runs): -53 cal mol-1 K-1
N (stoichiometry), 1 Site model ([5]; 'one site' model, average of two separate runs, listed as b-cyclodextrin): 1.09
Kd ([5]; 'two sites' model with stoichiometry fixed (N 1.0 each site), average of two runs, read-out: KD1, 2 Sites fixed model, first site): 49 ± 4 µM
ΔH1, 2 Sites fixed model, first site [5, 7]: -24.6 ± 0.7 kcal/mol
ΔS1, 2 Sites fixed model, first site [5, 7]: -62 cal mol-1 K-1
ΔS2, 2 Sites fixed model, second site [5, 7]: 21 cal mol-1 K-1
Kd ([5]; 'two sites' model with stoichiometry fixed, average of two runs, spread ± 154, site spurious or ancillary, read-out: KD2, 2 Sites fixed model, second site): 346 µM
ΔH2, 2 Sites model, second site [5, 8]: -16 ± 2 kcal/mol
ΔS2, 2 Sites model, second site [5, 8]: -29 cal mol-1 K-1
N2, 2 Sites model, second site ([5]; 'two sites' model, average of two runs, paper calls second-site stoichiometry inconsistent): 0.3
Kd ([5]; 'two sites' model, average of two runs, second site judged inconsistent, read-out: KD2, 2 Sites model, second site): 3 ± 2 µM
N1, 2 Sites model, first site [5, 9]: 1.06
ΔH1, 2 Sites model, first site [5, 9]: -18 ± 4 kcal/mol
ΔS1, 2 Sites model, first site [5, 9]: -40 cal mol-1 K-1
Kd ([5]; 'two sites' model, average of two separate runs, read-out: KD1, 2 Sites model, first site): 63 ± 6 µM
Molecule: OC[C@H]1O[C@@H]2O[C@H]3[C@H](O)[C@@H](O)[C@@H](O[C@H]4[C@H](O)[C@@H](O)[C@@H](O[C@H]5[C@H](O)[C@@H](O)[C@@H](O[C@H]6[C@H](O)[C@@H](O)[C@@H](O[C@H]7[C@H](O)[C@@H](O)[C@@H](O[C@H]8[C@H](O)[C@@H](O)[C@@H](O[C@H]1[C@H](O)[C@H]2O)O[C@@H]8CO)O[C@@H]7CO)O[C@@H]6CO)O[C@@H]5CO)O[C@@H]4CO)O[C@@H]3CO [β-cyclodextrin]
Kd [3]: 5.1 µM
Kd [4]: 8.2 µM

times weaker PP1 binding than measured for PTG [6]: ~15 times
Molecule: GM peptide 64–105: GM (PPP1R3A) peptide 64–105, corresponding to PTG 84–131; literature comparator (VSFADSFGFNLVSVKEFDCWELPSASTTFDLGTDIFHTEEYV; UniProt Q16821 64-105, looked up, fragment)
